Entries after “also recorded” stand apart in the source; their conditions may differ.
Columns and labels:
[1] = tested on: cytoplasmic extract-dependent modification of the 5′ VHL E3 target site; assay: Peptide competition of cytoplasmic extract-dependent modification of GAL-HIF-1α 344-553, in vitro VHL E3 ubiquitylation; format: biochemical, human; conditions: 12.5 μM peptide, RCC4 cytoplasmic extract
Method: The E1 activating enzyme used in ubiquitylation assays was either obtained from Affiniti Research (Exeter, UK) or purified from BL21 (DE3) E. coli transfected with plasmid expressing His6-tagged mouse E1. His6-E1 was purified by Ni^2+-agarose affinity chromatography. After dialysis against phosphate buffered saline, glycerol was added to 10% (vol/vol) and 25 ng/μl aliquots stored at −80° C. Human CDC34 recombinant E2 enzyme was from Affiniti Research (Exeter, UK). VHL E3 was obtained by anti-HA immunoprecipitation from stably transfected 7860-VHLHA cell lysates (Iliopoulos et al). GAL-HIF-1α substrate was prepared by anti-GAL immunoprecipitation from [^35S] methionine-labeled TnT rabbit reticulocyte (Promega) translates. Each 40 μl ubiquitylation reaction consisted of 4 μl of 5 mg/ml ubiquitin, 4 μl of 10×ATP regenerating system (20 mM Tris pH7.5, 10 mM ATP, 10 mM magnesium acetate, 300 mM creatine phosphate, 0.5 mg/ml creatine phosphokinase), 2 μl, E1, 3 μl E2, 6 μl VHL E3 immunopurified on protein G sepharose, 6 μl GAL-HIF-1α substrate immunopurified on agarose beads. Reactions were incubated at 30° C. for 2 h with occasional mixing, stopped by the addition of SDS sample buffer and analysed by SDS-PAGE and autoradiography. Cytoplasmic extract-based ubiquitylation assays have been previously described (Cockman).
It has been shown above that the 3′ VHL E3 target site responds to oxygen level via hydroxylation at proline residue 564. This praline residue forms part of a potential motif conserved between the 5′ and 3′ target sites. Mutation of the corresponding proline residue (P402A) in the 5′ target site also results in functional inactivation. It was possible therefore that proline residue 402 was also a target for regulatory hydroxylation, To test this we asked whether polypeptides corresponding to the 3′ VHL E3 target site could interfere with the cytoplasmic extract-dependent modification of the 5′ VHL E3 target site. […]

C. elegans = assay: Immunoblot of ceHIF (HIF-1) in extracts of treated worms; format: in vivo; conditions: 1 mM, 21% oxygen, wild type worms
Method: Immunoblots of ceHIF levels in extracts of c. elegans were carried out to monitor regulation by hypoxia and iron chelation. Firstly, the oxygen dependence of protein induction was analysed. Worms were grown on plates in bell jars flushed with air (N), or with oxygen/balance nitrogen having an oxygen concentration of 5%, 1%, 0.5% or 0.1% for 18 hrs. A graded increase in protein level was seen as the oxygen level was reduced below 5% with the highest level of induction at 0.5 and 0.1% oxygen concentration. The time course of protein induction was then studied. Worms were grown in bell jars flushed with a 0.1% oxygen/balance nitrogen mixture for 0, 4, 8, 16 or 24 hrs before preparation of extracts. […] The time course of protein decay on re-oxygenation was then assessed. Worms were grown in bell jars flushed with air (N) or a 0.1% oxygen/balance nitrogen mixture. Extracts were made either immediately, or after 4 and 8 minutes of re-oxygenation. Decay of ceHIF protein was very rapid on re-oxygenation. […] A time course RNAse protection assay showing cehif mRNA levels in worms exposed to 0.1% oxygen/balance nitrogen for 0, 4, 8, 16 and 24 hrs was carried out. No induction of ceHIF mRNA by hypoxia was seen. […] Induction by iron chelation was also studied in C. elegans. […]

[2] = tested on: HIF hydroxylase (HPH activity); assay: HIF hydroxylase (HPH) inhibition, statements of the description; format: biochemical

| Compound | competition of cytoplasmic extract effect on VHL-dependent ubiquitylation of GAL 344-553 [1] | ceHIF (HIF-1) protein level in normoxia (C. elegans) | inhibition of HIF hydroxylase / HPH [2] |
| --- | --- | --- | --- |
| 19:Pro564Hyp: polypeptide (HIF-1α residues 556-574) containing a trans-4-hydroxy-S-proline residue at position 564 | unable to compete |  |  |
| COC(=O)CNC(=O)C(=O)OC [dimethyloxalylglycine] |  | substantial increase in the amount of immunodetectable ceHIF; also recorded: strongly induced HIF-1 | act as inhibitors |
| 19:WT: polypeptide comprising HIF-1α residues 556 to 574 | completely ablate the cytoplasmic extract effect |  |  |

From patent US9844546B2, “Antibody against human HIF hydroxylase” (OXFORD UNIVERSITY INNOVATION LIMITED, priority 2001, dated 2017)
